One test addresses human FPR2 (Homo sapiens (Human), UniProt P25090). As to the kind of experiment: FPR2 cyclic adenosine monophosphate (cAMP) assay. Type of test: cell-based. Particulars: CHO cells overexpressing human FPR2; forskolin 5 µM; inhibition of cAMP production; read-out: hFPR2 cAMP2 EC50. The method, boiled down:
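Inhibition of forskolin-driven (5 µM) cAMP, with 200 µM IBMX, measured in human FPR2-expressing CHO cells, 2,000 per well, 30 min at room temperature; compounds tested 0.020 nM to 100 µM in 1% DMSO. HTRF 665/590 ratio converted to cAMP via calibration curve, then 4-parameter fit.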
Background: Changes in cAMP serve as a functional read-out for many G protein-coupled receptors.

Another test addresses human FPR1 (Homo sapiens (Human), UniProt P21462). Description: FPR1 cyclic adenosine monophosphate (cAMP) assay. Particulars: CHO cells overexpressing human FPR1; forskolin 10 µM; inhibition of cAMP production; read-out: hFPR1 cAMP EC50. It is filed as cell-based. In a few lines: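 Human FPR1-expressing CHO cells were used at 4,000 per well, with compound at 0.020 nM–100 µM in 1% DMSO. Potency came from a 4-parameter logistic fit.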

human FPR1, sequence (P21462 whole entry): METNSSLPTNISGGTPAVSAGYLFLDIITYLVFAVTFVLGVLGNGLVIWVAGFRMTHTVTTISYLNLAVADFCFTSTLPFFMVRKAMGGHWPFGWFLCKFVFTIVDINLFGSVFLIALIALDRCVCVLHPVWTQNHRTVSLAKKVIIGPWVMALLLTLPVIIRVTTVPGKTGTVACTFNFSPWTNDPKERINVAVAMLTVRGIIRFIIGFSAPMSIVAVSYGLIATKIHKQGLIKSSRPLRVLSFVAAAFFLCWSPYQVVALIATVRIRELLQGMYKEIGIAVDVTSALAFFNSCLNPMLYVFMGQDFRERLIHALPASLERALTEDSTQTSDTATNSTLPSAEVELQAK
human FPR2, sequence (P25090 whole entry): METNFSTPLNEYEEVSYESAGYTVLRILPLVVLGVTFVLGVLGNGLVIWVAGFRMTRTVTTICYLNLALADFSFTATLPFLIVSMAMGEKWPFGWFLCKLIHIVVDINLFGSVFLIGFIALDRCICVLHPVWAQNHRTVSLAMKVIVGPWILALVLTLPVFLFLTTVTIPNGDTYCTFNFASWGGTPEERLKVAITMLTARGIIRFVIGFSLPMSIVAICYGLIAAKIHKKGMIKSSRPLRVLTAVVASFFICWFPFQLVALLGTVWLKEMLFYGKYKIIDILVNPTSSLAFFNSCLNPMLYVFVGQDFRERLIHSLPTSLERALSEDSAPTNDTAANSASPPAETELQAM

On to `COc1ccc([C@@H]2CN(c3cccn(CC(OC)C(F)(F)F)c3=O)C(=O)[C@H]2NC(=O)c2ccc(OC(F)(F)F)cc2)cc1` (stereo partly drawn) [Example 433], for which the half-maximal effective concentration (EC50) (as a rule, the concentration at which the effect is half-maximal) is 1.8 nM on human FPR2 and 1 nM on human FPR1.

For the compound `COc1ccc([C@@H]2CN(c3cccn(CC(C)O)c3=O)C(=O)[C@H]2NC(=O)c2ccc(OC(F)F)cc2)cc1` (stereo partly drawn) [Example 434], the values for the EC50 at human FPR2 and at human FPR1 were 4.4 nM and 10 nM, respectively.

`COc1ccc([C@@H]2CN(c3cccn(CC(C)O)c3=O)C(=O)[C@H]2NC(=O)c2ccc(OC(F)(F)F)cc2)c(F)c1` (stereo partly drawn) [Example 435]: the EC50 at human FPR2 was 2.8 nM; at human FPR1 it was 4 nM.

For `COc1ccc([C@@H]2CN(c3cccn(CC(C)O)c3=O)C(=O)[C@H]2NC(=O)c2ccc(OC(F)F)cc2)c(F)c1` (stereo partly drawn) [Example 436], the EC50 on human FPR2 is less than 5 nM; at human FPR1 it was 9 nM.

With `COCC(CO)n1cccc(N2C[C@@H](c3ccc(OC)cc3F)[C@H](NC(=O)c3ccc(OC(F)(F)F)cc3)C2=O)c1=O` (stereo partly drawn) [Example 437], the half-maximal effective concentration (EC50) on human FPR2 and on human FPR1 was 1 nM in each case.

`COCC(CO)n1cccc(N2C[C@@H](c3ccc(OC)cc3F)[C@H](NC(=O)c3ccc(OC(F)F)cc3)C2=O)c1=O` (stereo partly drawn) [Example 438]: the results for the EC50 at human FPR2 and at human FPR1 were 3.9 nM and 7 nM, respectively.

Turning to `CC(O)Cn1cccc(N2C[C@@H](c3ccc(Cl)cc3)[C@H](NC(=O)c3ccc(OC(F)(F)F)cc3)C2=O)c1=O` (stereo partly drawn) [Example 439], the values for the EC50 at human FPR2 and on human FPR1 were 5.5 nM and 7 nM, respectively.

As to `COc1ccc([C@@H]2CN(c3cccn(CC(C)O)c3=O)C(=O)[C@H]2NC(=O)c2ccc(OC(F)(F)F)cc2)cc1` (stereo partly drawn) [Example 440], the values for the 50% effective concentration (EC50) on human FPR2 and at human FPR1 were 1.3 nM and 11 nM, respectively.

As to `COCC(C(=O)N1CCOCC1)n1cccc(N2C[C@@H](c3ccc(OC)cc3)[C@H](NC(=O)c3ccc(OC(F)F)cc3)C2=O)c1=O` (stereo partly drawn) [Example 441], the EC50 on human FPR2 is 5.2 nM; on human FPR1 it was 3 nM.

For `Cc1ccn(CC2CC2)c(=O)c1N1C[C@@H](c2ccc(Cl)cc2)[C@H](NC(=O)c2ccc(OC(F)F)cc2)C1=O` [Example 442], the EC50 worked out at 9.6 nM at human FPR2 and 1 nM at human FPR1.

For the compound `Cc1ccn(CC(F)F)c(=O)c1N1C[C@@H](c2ccc(Cl)cc2)[C@H](NC(=O)c2ccc(OC(F)(F)F)cc2)C1=O` [Example 443], the EC50 on human FPR2 amounted to 5.1 nM; at human FPR1, 2 nM.

Turning to `COCC(C(=O)N1CCCC1)n1cccc(N2C[C@@H](c3ccc(OC)cc3)[C@H](NC(=O)c3ccc(OC(F)F)cc3)C2=O)c1=O` (stereo partly drawn) [Example 444], the values for the EC50 at human FPR2 and at human FPR1 were 1.8 nM and 1 nM, respectively.

With `COc1cc(F)c([C@H]2[C@H](NC(=O)c3ccc(OC(F)F)cc3)C(=O)N(c3cccn(CCO)c3=O)[C@H]2C)c(F)c1` [Example 445], the 50% effective concentration (EC50) stood at 4.2 nM at human FPR2 and 620 nM at human FPR1.

In the case of `COc1cc(F)c([C@@H]2CN(c3cc4c(n(CCO)c3=O)CCCC4)C(=O)[C@H]2NC(=O)c2ccc(OC(F)F)cc2)c(F)c1` [Example 446], the 50% effective concentration (EC50) on human FPR2 is less than 5 nM; at human FPR1 it was 3 nM.

With `COc1cc(F)c([C@@H]2CN(c3nccc(NCC4CCCO4)c3C(F)(F)F)C(=O)[C@H]2NC(=O)c2ccc(Cl)cc2)c(F)c1` (stereo partly drawn) [Example 447], the values for the half-maximal effective concentration (EC50) at human FPR2 and on human FPR1 were 4.7 nM and 2800 nM, respectively.

For the compound `COCC(C(=O)N1CC[C@@H](O)C1)n1cccc(N2C[C@@H](c3c(F)cc(OC)cc3F)[C@H](NC(=O)c3ccc(OC(F)F)cc3)C2=O)c1=O` (stereo partly drawn) [Example 448], the concentration giving a half-maximal response (EC50) at human FPR2 was found to be 8 nM; on human FPR1 it was 9 nM.

Turning to `COCC(CO)n1ccc(C)c(N2C[C@@H](c3ccc(OC)cc3)[C@H](NC(=O)c3ccc(OC(F)(F)F)cc3)C2=O)c1=O` (stereo partly drawn) [Example 449], the concentration giving a half-maximal response (EC50) at human FPR2 stood at 3.5 nM; at human FPR1, 0.2 nM.

In the case of `COc1cc(F)c([C@@H]2CN(c3c(C)ccn(CC4CC4)c3=O)C(=O)[C@H]2NC(=O)c2ccc(Cl)cc2)c(F)c1` [Example 450], the EC50 at human FPR2 and on human FPR1 was 3 nM each time.

Consider `COc1cc(F)c([C@@H]2CN(c3nccc(NCCS(C)(=O)=O)c3C(F)(F)F)C(=O)[C@H]2NC(=O)c2ccc(Cl)cc2)c(F)c1` [Example 451], for which the EC50 came to 2 nM on human FPR2 and 1900 nM on human FPR1.

For `COCC(CO)n1nccc(N2C[C@@H](c3c(F)cc(OC)cc3F)[C@H](NC(=O)c3ccc(OC(F)(F)F)cc3)C2=O)c1=O` (stereo partly drawn) [Example 452], the EC50 was found to be 9.6 nM on human FPR2 and 4 nM at human FPR1.

Regarding `COc1cc(F)c([C@@H]2CN(c3c(C)ccn(C(F)(F)CO)c3=O)C(=O)[C@H]2NC(=O)c2ccc(OC(F)F)cc2)c(F)c1` [Example 454], the EC50 at human FPR2 was determined as 4.4 nM; on human FPR1, 17 nM.

For the compound `COc1cc(F)c([C@@H]2CN(c3c(C)ccn(CC#N)c3=O)C(=O)[C@H]2NC(=O)c2ccc(OC(F)(F)F)cc2)c(F)c1` [Example 455], the half-maximal effective concentration (EC50) on human FPR2 was 2.9 nM; at human FPR1, 10 nM.

In the case of `COc1cc(F)c([C@@H]2CN(c3c(C)ccn(CC4CCOCC4)c3=O)C(=O)[C@H]2NC(=O)c2ccc(OC(F)(F)F)cc2)c(F)c1` [Example 456], the EC50 is 2.8 nM on human FPR2 and 1 nM at human FPR1.

In the case of `COc1cc(F)c([C@@H]2CN(c3c(C)ccn(CC4CCOCC4)c3=O)C(=O)[C@H]2NC(=O)c2ccc(OC(F)F)cc2)c(F)c1` [Example 457], the EC50 on human FPR2 came out at 3.2 nM; on human FPR1 it was 2 nM.

Regarding `COc1cc(F)c([C@@H]2CN(c3c(C)ccn(C4CCC4)c3=O)C(=O)[C@H]2NC(=O)c2ccc(OC(F)(F)F)cc2)c(F)c1` [Example 458], the values for the EC50 at human FPR2 and on human FPR1 were 1.2 nM and 0.8 nM, respectively.

For the compound `COc1ccc([C@@H]2CN(c3c(C)ccn(CC4CC4)c3=O)C(=O)[C@H]2NC(=O)c2ccc(OC(F)F)cc2)cc1` [Example 459], the concentration for a half-maximal effect (EC50) at human FPR2 was 0.9 nM; on human FPR1, 0.2 nM.

Consider `CCn1c2c(cc(N3C[C@@H](c4c(F)cc(OC)cc4F)[C@H](NC(=O)c4ccc(OC(F)F)cc4)C3=O)c1=O)CCCC2` [Example 460], for which the concentration giving a half-maximal response (EC50) at human FPR2 is 1.4 nM; on human FPR1, 1 nM.

Turning to `COCCn1c2c(cc(N3C[C@@H](c4c(F)cc(OC)cc4F)[C@H](NC(=O)c4ccc(Cl)cc4)C3=O)c1=O)CCCC2` [Example 461], the half-maximal effective concentration (EC50) came to 3.7 nM at human FPR2 and 3 nM at human FPR1.

With `COc1cc(F)c([C@@H]2CN(c3c(C)ccn(C4COC4)c3=O)C(=O)[C@H]2NC(=O)c2ccc(OC(F)(F)F)cc2)c(F)c1` [Example 463], the EC50 stood at 3.9 nM at human FPR2 and 6 nM on human FPR1.

For `CCn1c2c(cc(N3C[C@@H](c4c(F)cc(OC)cc4F)[C@H](NC(=O)c4ccc(Cl)cc4)C3=O)c1=O)CCCC2` [Example 464], the concentration giving a half-maximal response (EC50) on human FPR2 was 1.6 nM; at human FPR1, 4 nM.

As for `COc1ccc([C@@H]2CN(c3cccn(CC(O)C(F)(F)F)c3=O)C(=O)[C@H]2NC(=O)c2ccc(OC(F)F)cc2)c(F)c1` (stereo partly drawn) [Example 465], the EC50 on human FPR2 came to 2.9 nM; on human FPR1 it was 13 nM.

With `COc1cc(F)c([C@@H]2CN(c3ccnn(CC(O)C(F)(F)F)c3=O)C(=O)[C@H]2NC(=O)c2ccc(OC(F)(F)F)cc2)c(F)c1` (stereo partly drawn) [Example 466], the EC50 worked out at 3 nM on human FPR2 and 4 nM on human FPR1.

In the case of `COc1cc(F)c([C@@H]2CN(c3cncn(CC(C)O)c3=O)C(=O)[C@H]2NC(=O)c2ccc(OC(F)F)cc2)c(F)c1` (stereo partly drawn) [Example 467], the concentration giving a half-maximal response (EC50) at human FPR2 stood at 1.8 nM; on human FPR1, 1500 nM.

The values above are taken from patent US20230348426A1, “OXOPYRROLIDINE FPR2 AGONISTS” (Bristol-Myers Squibb Company, priority 2020, published 2023).
